Laboratory results: ChEMBL document CHEMBL5356980, “Linker optimization and activity validation of a cell surface vimentin targeted homo-dimeric peptoid antagonist for lung cancer stem cells” (Bioorg Med Chem, 2024)
The source made the active and inactive calls. The rule behind the calls is not given here.

Key:
NCI-H358 = assay: Antiproliferative activity against human NCI-H358 cells expressing vimentin assessed as inhibition of cell growth incubated for 3 days by MTS assay; assay type: functional, cell-based; conditions: NCI-H358, 72 h
NCI-H460 [1] = assay: Induction of apoptosis in human NCI-H460 cells assessed as viable cells at 10 uM incubated for 12 hrs by annexin V/PI staining based flow cytometry analysis (reference value: 90.9%); assay type: functional; conditions: read-out: Activity
NCI-H460 [2] = assay: Inhibition of colony formation in human NCI-H460 cells incubated for 8 days by crystal violet staining based analysis; assay type: functional, cell-based
NCI-H1299 [3] = assay: Induction of apoptosis in human NCI-H1299 cells assessed as late apoptotic cells at 20 uM incubated for 12 hrs by annexin V/PI staining based flow cytometry analysis (reference value: 2.05%); assay type: functional
NCI-H460 [4] = assay: Induction of apoptosis in human NCI-H460 cells assessed as necrotic cells at 20 uM incubated for 12 hrs by annexin V/PI staining based flow cytometry analysis (reference value: 0.20%); assay type: functional
NCI-H460 [5] = assay: Induction of apoptosis in human NCI-H460 cells assessed as early apoptotic cells at 10 uM incubated for 12 hrs by annexin V/PI staining based flow cytometry analysis (reference value: 0.00%); assay type: functional
NCI-H460 [6] = assay: Inhibition of cell migration of human NCI-H460 cells assessed as reduction in wound distance at 10 uM incubated for 24 hrs by crystal violet staining based microscopic analysis; assay type: functional
NCI-H1299 [7] = assay: Antiproliferative activity against human NCI-H1299 cells expressing vimentin assessed as inhibition of cell growth incubated for 3 days by MTS assay; assay type: functional, cell-based; conditions: NCI-H1299, 72 h
NCI-H1299 [8] = assay: Induction of apoptosis in human NCI-H1299 cells assessed as late apoptotic cells at 10 uM incubated for 12 hrs by annexin V/PI staining based flow cytometry analysis (reference value: 2.05%); assay type: functional
NCI-H1299 [9] = assay: Inhibition of cell migration of human NCI-H1299 cells assessed as reduction in wound distance at 10 uM incubated for 24 hrs by crystal violet staining based microscopic analysis; assay type: functional
NCI-H1299 [10] = assay: Induction of apoptosis in human NCI-H1299 cells assessed as early apoptotic cells at 10 uM incubated for 12 hrs by annexin V/PI staining based flow cytometry analysis (reference value: 0.73%); assay type: functional
NCI-H1299 [11] = assay: Inhibition of cell migration of human NCI-H1299 cells assessed as reduction in wound closure incubated for 24 hrs by crystal violet staining based microscopic analysis; assay type: functional; conditions: NCI-H1299, 24 h
NCI-H1299 [12] = assay: Inhibition of cell migration of human NCI-H1299 cells incubated for 24 hrs by crystal violet staining based microscopic analysis; assay type: functional; conditions: dose <= 10000.0 nM
NCI-H460 [13] = assay: Inhibition of cell migration of human NCI-H460 cells incubated for 24 hrs by crystal violet staining based microscopic analysis; assay type: functional; conditions: dose <= 10000.0 nM
NCI-H2009 = assay: Antiproliferative activity against human NCI-H2009 cells expressing vimentin assessed as inhibition of cell growth incubated for 3 days by MTS assay; assay type: functional, cell-based; conditions: NCI-H2009, 72 h
NCI-H460 [14] = assay: Induction of apoptosis in human NCI-H460 cells assessed as viable cells at 20 uM incubated for 12 hrs by annexin V/PI staining based flow cytometry analysis (reference value: 90.9%); assay type: functional; conditions: read-out: Activity
NCI-H1299 [15] = assay: Induction of apoptosis in human NCI-H1299 cells assessed as viable cells at 10 uM incubated for 12 hrs by annexin V/PI staining based flow cytometry analysis (reference value: 94.6%); assay type: functional; conditions: read-out: Activity
NCI-H1299 [16] = assay: Induction of apoptosis in human NCI-H1299 cells assessed as viable cells at 20 uM incubated for 12 hrs by annexin V/PI staining based flow cytometry analysis (reference value: 94.6%); assay type: functional; conditions: read-out: Activity
NCI-H460 [17] = assay: Induction of apoptosis in human NCI-H460 cells assessed as late apoptotic cells at 10 uM incubated for 12 hrs by annexin V/PI staining based flow cytometry analysis (reference value: 6.19%); assay type: functional
NCI-H460 [18] = assay: Inhibition of cell migration of human NCI-H460 cells assessed as reduction in wound closure incubated for 24 hrs by crystal violet staining based microscopic analysis; assay type: functional; conditions: NCI-H460, 24 h
NCI-H460 [19] = assay: Induction of apoptosis in human NCI-H460 cells assessed as necrotic cells at 10 uM incubated for 12 hrs by annexin V/PI staining based flow cytometry analysis (reference value: 0.20%); assay type: functional
NCI-H460 [20] = assay: Inhibition of colony formation in human NCI-H460 cells at 300 nM incubated for 8 days by crystal violet staining based analysis; assay type: functional, cell-based; conditions: time 8.0 day
NCI-H1299 [21] = assay: Antimigratory activity against human NCI-H1299 assessed as inhibition of cell migration incubated for 24 hrs by crystal violet staining based microscopic analysis; assay type: functional; conditions: NCI-H1299, 24 h
NCI-H1299 [22] = assay: Antiproliferative activity against human NCI-H1299 cells assessed as inhibition of cell growth measured for 18 hrs by MTS assay; assay type: functional, cell-based
NCI-H2122 = assay: Antiproliferative activity against human NCI-H2122 cells expressing vimentin assessed as inhibition of cell growth incubated for 3 days by MTS assay; assay type: functional, cell-based; conditions: NCI-H2122, 72 h
NCI-H1299 [23] = assay: Antiproliferative activity against human NCI-H1299 cells assessed as inhibition of cell growth measured for 2 hrs by MTS assay; assay type: functional, cell-based; conditions: NCI-H1299, 2 h
NCI-H460 [24] = assay: Induction of apoptosis in human NCI-H460 cells assessed as early apoptotic cells at 20 uM incubated for 12 hrs by annexin V/PI staining based flow cytometry analysis (reference value: 0.00%); assay type: functional
NCI-H1299 [25] = assay: Induction of apoptosis in human NCI-H1299 cells assessed as necrotic cells at 20 uM incubated for 12 hrs by annexin V/PI staining based flow cytometry analysis (reference value: 2.62%); assay type: functional
NCI-H1299 [26] = assay: Inhibition of colony formation in human NCI-H1299 cells incubated for 8 days by crystal violet staining based analysis; assay type: functional, cell-based
Vimentin = Vimentin (Homo sapiens, UniProt P08670); assay: Binding affinity to his-tagged recombinant Vimentin (unknown origin) assessed as dissociation constant by ELISA analysis
NCI-H1299 [27] = assay: Induction of apoptosis in human NCI-H1299 cells assessed as early apoptotic cells at 20 uM incubated for 12 hrs by annexin V/PI staining based flow cytometry analysis (reference value: 0.73%); assay type: functional
HBEC3-KT = assay: Antiproliferative activity against human HBEC3-KT cells assessed as inhibition of cell growth incubated for 3 days by MTS assay; assay type: toxicity, cell-based; conditions: 72 h, time 3 day
NCI-H460 [28] = assay: Induction of apoptosis in human NCI-H460 cells assessed as late apoptotic cells at 20 uM incubated for 12 hrs by annexin V/PI staining based flow cytometry analysis (reference value: 6.19%); assay type: functional
NCI-H1299 [29] = assay: Induction of apoptosis in human NCI-H1299 cells assessed as necrotic cells at 10 uM incubated for 12 hrs by annexin V/PI staining based flow cytometry analysis (reference value: 2.62%); assay type: functional
NCI-H460 [30] = assay: Antiproliferative activity against human NCI-H460 cells expressing vimentin assessed as inhibition of cell growth incubated for 3 days by MTS assay; assay type: functional, cell-based; conditions: NCI-H460, 72 h

Sequence of Vimentin (P08670 whole entry): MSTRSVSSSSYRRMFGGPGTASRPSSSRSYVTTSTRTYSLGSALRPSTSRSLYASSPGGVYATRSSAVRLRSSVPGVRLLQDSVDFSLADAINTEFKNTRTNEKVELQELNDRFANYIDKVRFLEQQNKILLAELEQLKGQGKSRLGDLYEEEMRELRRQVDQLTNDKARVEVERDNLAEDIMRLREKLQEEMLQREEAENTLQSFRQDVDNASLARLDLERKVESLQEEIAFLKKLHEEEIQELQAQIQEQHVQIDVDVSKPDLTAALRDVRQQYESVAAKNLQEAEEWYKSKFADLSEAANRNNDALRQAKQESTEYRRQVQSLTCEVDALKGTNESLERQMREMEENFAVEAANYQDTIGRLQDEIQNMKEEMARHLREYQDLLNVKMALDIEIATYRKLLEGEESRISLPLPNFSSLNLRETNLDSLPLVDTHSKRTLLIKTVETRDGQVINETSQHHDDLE

Compound `COCCN(CC(=O)N[C@@H](CCCCN)C(=O)N[C@H](C)C(=O)NCC(=O)NCCCCC(NC(=O)CNC(=O)[C@@H](C)NC(=O)[C@H](CCCCN)NC(=O)CN(CCOC)C(=O)CN(Cc1ccc2c(c1)OCO2)C(=O)CN(CC(C)C)C(=O)CN(CCCCN)C(=O)CN(CCCCN)C(=O)CN(CC(C)C)C(=O)CNc1cccc(C(=O)c2ccccc2)c1)C(N)=O)C(=O)CN(Cc1ccc2c(c1)OCO2)C(=O)CN(CC(C)C)C(=O)CN(CCCCN)C(=O)CN(CCCCN)C(=O)CN(CC(C)C)C(=O)CNc1ccc(C(=O)c2ccccc2)cc1` (some centres not stated) has an IC50 (NCI-H358) of 12.8 µM, a viability at 10 µM (NCI-H460 [1]) of 62.2% and an IC50 (NCI-H460 [2]; NCI-H460, 192 h) of 0.4 µM. The inhibition (NCI-H460 [2]; time 8.0 day) was “Dose-Dependent Effect”, the Activity (NCI-H1299 [3]) was 26% and the Activity (NCI-H460 [4]) was 12.8%. For the same compound, the Activity (NCI-H460 [5]) was 1.15%, the inhibition (NCI-H460 [6]) was “Active” and the IC50 (NCI-H1299 [7]) was 6.7 µM. For the same compound, the Activity (NCI-H1299 [8]) was 8.1%, the inhibition (NCI-H1299 [9]) was “Active” and the Activity (NCI-H1299 [10]) was 0.44%. The IC50 (NCI-H1299 [11]) was 2 µM, the inhibition (NCI-H1299 [12]) was “Dose-Dependent Effect” and the inhibition (NCI-H460 [13]) was “Dose-Dependent Effect”. For the same compound, the IC50 (NCI-H2009) was 14.3 µM, the viability at 20 µM (NCI-H460 [14]) was 0.06% and the viability at 10 µM (NCI-H1299 [15]) was 50.5%. It also gave a viability at 20 µM (NCI-H1299 [16]) of 21.3%, an Activity (NCI-H460 [17]) of 15.3% and an IC50 (NCI-H460 [18]) of 4 µM. The Activity (NCI-H460 [19]) was 1.3%, the inhibition (NCI-H460 [20]) was “Active” and the IC50 (NCI-H1299 [21]) was ~2 µM. For the same compound, the Activity (NCI-H1299 [22]) was “inactive”, the IC50 (NCI-H2122) was 30.5 µM and the IC50 (NCI-H1299 [23]) was ~21 µM. The Activity (NCI-H460 [24]) was 1.09%, the Activity (NCI-H1299 [25]) was 1.37% and the IC50 (NCI-H1299 [26]; NCI-H1299, 192 h) was 0.8 µM. The inhibition (NCI-H1299 [26]; time 8.0 day) was “Dose-Dependent Effect”, the Kd (Vimentin) was ~0.1 µM and the Activity (NCI-H1299 [27]) was 0.46%. The Activity (HBEC3-KT) was “Non-Toxic”, the Activity (NCI-H460 [28]) was 45.5% and the Activity (NCI-H1299 [29]) was 0.98%. It also gave an IC50 (NCI-H460 [30]) of 8.6 µM.
